Here are results for two molecules from patent US7776790B2 (Platte Chemical Co., priority 2001, dated 2010).

The structures appear in SMILES notation.

Data set [1] can be described thus: pKa of the acid herbicide in the formulation, measured. The format is physicochemical. The conditions noted are these: 2,4-D acid in PCC-1133; glyphosate acid in PCC-1168.
For data set [2] the following is noted: per approximately 100 grams of an aqueous solution (one weight percent); depending on temperature and pH; cited from earlier work.

Usually pKa stands for the pH at which an ionisable group is half protonated. A higher pKa goes with a weaker acid or stronger base. On to `O=C(O)COc1ccc(Cl)cc1Cl` [2,4-D acid, 2,4-dichlorophenoxy acetic acid], for which, in data set [1], the pKa turned out to be 2.87. For the molecule `O=C(O)CNCP(=O)(O)O` [glyphosate acid, N-(phosphonomethyl)glycine], in data set [1], the pKa was about 2.5. The “solubility in water or acidic water” value in data set [2] was “approximately 1 gram”.
